Assay results as given in patent US20140303166A1, “COSMETIC METHOD FOR CHANGING THE APPEARANCE OF EYES” (priority 2013, published 2014).
Where a name gives a salt, the structure may show the parent alone.

Test system: eyelids
Assay: topical application to the eyelids (eyelid retraction / eye-widening)
Type: in vivo
Conditions: topically applied, alone or in combination
Source text: Topical treatments to which the current application is directed include ointments, creams, and solutions that contain one or more of the compounds travoprost, dorzolamide hydrochloride, and timolol maleate, alone or in combination, and/or one or more chemically-related compounds and may also include pure forms of various types of prostaglandin, synthetic prostaglandin, and synthetic prostaglandin analogues.

## CC(C)OC(=O)CCCC=CCC1C(O)CC(O)C1C=CC(O)COc1cccc(C(F)(F)F)c1 (stereo not drawn) [travoprost, propan-2-yl 7-[3,5-dihydroxy-2-[3-hydroxy-4-[3-(trifluoromethyl)phenoxy]-but-1-enyl]-cyclopentyl]hept-5-enoate]
  eyelid retraction after topical application to the eyelids: cause the eyelids to retract more completely

## CCCCCCCC(=O)CC[C@@H]1[C@@H](C/C=C\CCCC(=O)OC(C)C)[C@@H](O)C[C@H]1O [unoprostone, isopropyl (Z)-7-[(1R,2R,3R,5 S)-3,5-dihydroxy-2-(3-oxodecyl)cyclopentyl] hept-5-enoic acid]
  eyelid retraction after topical application to the eyelids: cause the eyelids to retract more completely

## CCNC(=O)CCCC=CCC1C(O)CC(O)C1C=CC(O)CCc1ccccc1 (stereo not drawn) [bimatoprost, 7-[3,5-dihydroxy-2-(3-hydroxy-5-phenyl-pent-1-enyl)-cyclopentyl]-N-ethyl-hept-5-enamide]
  eyelid retraction after topical application to the eyelids: cause the eyelids to retract more completely

## CCN[C@H]1C[C@H](C)S(=O)(=O)c2sc(S(N)(=O)=O)cc21 [dorzolamide hydrochloride, (4S,6S)-2-ethylamino-4-methyl-5,5-dioxo-5λ^6,7dithiabicyclo[4.3.0] nona-8,10-diene-8-sulfonamide]
  eyelid retraction after topical application to the eyelids: cause the eyelids to retract more completely

## CC(C)OC(=O)CCC/C=C\C[C@@H]1[C@@H](CC[C@@H](O)CCc2ccccc2)[C@H](O)C[C@@H]1O [latanoprost, isopropyl (Z)-7-[(1R,2R,3R,5S)-3,5-dihydroxy-2-[(3R)3-hydroxy-5-phenylpentyl]-cyclopentyl] hept-5-enoate]
  eyelid retraction after topical application to the eyelids: cause the eyelids to retract more completely

## CC(C)(C)NC[C@H](O)COc1nsnc1N1CCOCC1 [timolol maleate, (S)-1-(tert-butylamino)-3-[(4-morpholin-4-yl-1,2,5-thiadiazol-3-yl)oxy]propan-2-ol]
  eyelid retraction after topical application to the eyelids: cause the eyelids to retract more completely
